The source of these data is ChEMBL document CHEMBL1201862, “PubChem BioAssay data set” (2004).

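Cultured in 96-well plates, cells were exposed to test compound for 48 hours across five concentrations. The concentration for 50% growth inhibition is given as GI50.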 Activity calls are given as the source filed them. No stated cut-off is given here; in the data, active = GI50 up to about 1.1 µM and inactive = higher. A value given as a limit tells only on which side of the number the result lay.

Test systems include NCI-H226; RPMI-8226; NCI/ADR-RES; SK-MEL-28; NCI-H522; SNB-75; MOLT-4; UO-31; HCT-116; SNB-19; HCC 2998; SF-295; SW-620; DU-145; SF-268; UACC-62; MDA-N; SR; COLO 205; T47D.
Test in all cases: growth of human tumour cells (NCI), 48 h

Regarding `CC(C)CCc1c(Cl)nc(Cl)nc1Cl`, the GI50 in the assay on NCI-H226 was 4.44 µM (inactive); in the assay with RPMI-8226 it was 30.7 µM (inactive); in the assay on NCI/ADR-RES it was 28.2 µM (inactive); with SK-MEL-28 it was 9.04 µM (inactive); in the assay with NCI-H522 it was 2.71 µM (inactive); in the assay on SNB-75 it was 10 µM (inactive). Also, the GI50 with MOLT-4 was 0.783 µM (active); in the assay on UO-31 it was 20.1 µM (inactive); with HCT-116 it was 2.48 µM (inactive); with SNB-19, 22 µM (inactive); in the assay with HCC 2998, 16.5 µM (inactive); in the assay with SF-295, 18.1 µM (inactive). The GI50 in the assay with SW-620 was 1.4 µM (inactive); in the assay on DU-145 it was 17.3 µM (inactive); in the assay on SF-268, 17.6 µM (inactive); in the assay with UACC-62 it was 12 µM (inactive); in the assay with MDA-N, 3.98 µM (inactive).
Take `O=C(O)/C(Cl)=C(\Cl)C(=O)NC1C2CC3CC(C2)CC1C3` (stereo unspecified): the GI50 in the assay with NCI-H226, in the assay with RPMI-8226, with SK-MEL-28, with NCI-H522, with SNB-75 and with MOLT-4 was > 100 µM (inactive) throughout. The GI50 in the assay with UO-31, in the assay on HCT-116, in the assay on SNB-19, in the assay with HCC 2998, with SF-295 and in the assay on SR was > 100 µM (inactive) in each case. In addition, the GI50 in the assay on SW-620, with SF-268, in the assay on UACC-62 and in the assay on COLO 205 was > 100 µM (inactive) throughout.
In the case of `CNC(=S)NC1CCCCC1NC(=S)NC` (stereo unspecified), the GI50 with NCI-H226, in the assay with RPMI-8226, with SK-MEL-28, with NCI-H522, in the assay on SNB-75 and in the assay on MOLT-4 was > 100 µM (inactive) in each case. Moreover, the GI50 with UO-31, in the assay with HCT-116, in the assay with SNB-19, in the assay with HCC 2998, in the assay with SF-295 and with SR was > 100 µM (inactive) each time. The GI50 in the assay with SW-620, with SF-268, with UACC-62 and in the assay with COLO 205 was > 100 µM (inactive) in each case.
With `C=C(Nc1nc2ccc(C)cc2s1)C(=O)C(CC)C(=O)C(CC)CC1C(=O)NC(=O)NC1=O` (stereo unspecified), the GI50 with NCI-H226, in the assay on NCI/ADR-RES, in the assay on SK-MEL-28, with NCI-H522, with SNB-75 and with MOLT-4 was > 100 µM (inactive) in each case. In addition, the GI50 in the assay on UO-31, with HCT-116, in the assay on SNB-19, in the assay on HCC 2998, with SF-295 and with SW-620 was > 100 µM (inactive) in each case. In addition, the GI50 in the assay with DU-145, in the assay on SF-268, in the assay on UACC-62, with MDA-N and in the assay with COLO 205 was > 100 µM (inactive) throughout.
As to `O=C(N/C(=C\c1cccc([N+](=O)[O-])c1)c1nc2ccccc2[nH]1)c1ccccc1`, the GI50 in the assay on NCI-H226 was 51.6 µM (inactive); in the assay on RPMI-8226, 40.8 µM (inactive); with SK-MEL-28, 18.3 µM (inactive); in the assay on NCI-H522, 36.8 µM (inactive); with SNB-75, 36.4 µM (inactive); with MOLT-4, 32.9 µM (inactive). The GI50 was 16.6 µM (inactive) in the assay with UO-31; 59.8 µM (inactive) in the assay on HCT-116; 61.2 µM (inactive) in the assay with SNB-19; 94.4 µM (inactive) with HCC 2998; 37.3 µM (inactive) with SR; > 100 µM (inactive) with SW-620. Also, the GI50 in the assay with SF-268 was 45.3 µM (inactive); in the assay with UACC-62, 88.1 µM (inactive); with COLO 205, 93.1 µM (inactive).
Consider `COc1ccc(Oc2nc3c(N)cc(C(F)(F)F)cc3nc2-c2ccccc2)cc1`, for which the GI50 in the assay on NCI-H226 is 11.9 µM (inactive); with RPMI-8226, 63 µM (inactive); in the assay on NCI/ADR-RES it was 27.2 µM (inactive); with SK-MEL-28 it was 85.9 µM (inactive); with SNB-75, 17.7 µM (inactive); in the assay with MOLT-4, 42.2 µM (inactive). For the same molecule, the GI50 with UO-31 was 60.8 µM (inactive); in the assay with T47D, 8.04 µM (inactive); in the assay with HCT-116, 27.7 µM (inactive); in the assay on SNB-19, 36.1 µM (inactive); with HCC 2998, 38.8 µM (inactive); in the assay on SF-295, 18.5 µM (inactive). Moreover, the GI50 in the assay with SR was 19.9 µM (inactive); in the assay with SW-620, 58.1 µM (inactive); in the assay on SF-268, 20.6 µM (inactive); with UACC-62, 31.4 µM (inactive); with COLO 205, 12.8 µM (inactive).
For `CCOC(=O)/C(=C/Nc1c(C)n(C)n(-c2ccccc2)c1=O)C(C)=O`, the GI50 with NCI-H226, in the assay on RPMI-8226, in the assay with NCI/ADR-RES, in the assay with NCI-H522, in the assay on SNB-75 and with MOLT-4 was > 100 µM (inactive) each time. Further, the GI50 with UO-31, in the assay on HCT-116, in the assay with HCC 2998, with SF-295, in the assay on SR and with SW-620 was > 100 µM (inactive) in each case. For the same molecule, the GI50 with DU-145, with UACC-62, in the assay on MDA-N and with COLO 205 was > 100 µM (inactive) each time.
With `COc1ccc(N2C(=O)CSC2c2cc3cc(Br)ccc3nc2Cl)cc1` (stereo unspecified), the GI50 is > 50 µM (inactive) in the assay on NCI-H226; 41.8 µM (inactive) in the assay on RPMI-8226; 44.1 µM (inactive) in the assay on NCI/ADR-RES; > 50 µM (inactive) in the assay on SK-MEL-28; 27.4 µM (inactive) in the assay on NCI-H522; > 50 µM (inactive) in the assay with SNB-75. Also, the GI50 with MOLT-4 is 21 µM (inactive); in the assay with UO-31 it was > 50 µM (inactive); with T47D, 38.3 µM (inactive); in the assay on HCT-116, > 50 µM (inactive); in the assay with SNB-19 it was > 50 µM (inactive); in the assay with HCC 2998, > 50 µM (inactive). In addition, the GI50 was 19.9 µM (inactive) with SF-295; 18.7 µM (inactive) in the assay with SR; > 50 µM (inactive) with SW-620; > 50 µM (inactive) in the assay on DU-145; > 50 µM (inactive) with SF-268; 10.3 µM (inactive) in the assay on UACC-62. Also, the GI50 in the assay on COLO 205 is > 50 µM (inactive).
For the molecule `CC(C)C(/C=C/c1ccc(Br)cc1)=N\NC(N)=O`, the GI50 is > 100 µM (inactive) with NCI-H226; > 100 µM (inactive) in the assay on RPMI-8226; > 100 µM (inactive) in the assay with SK-MEL-28; 70.3 µM (inactive) with NCI-H522; > 100 µM (inactive) with SNB-75; > 100 µM (inactive) with MOLT-4. The GI50 in the assay on UO-31 is 18.2 µM (inactive); in the assay on HCT-116 it was > 100 µM (inactive); in the assay on SNB-19, > 100 µM (inactive); in the assay with HCC 2998 it was 12.3 µM (inactive); in the assay on SF-295, > 100 µM (inactive); in the assay with SR it was > 100 µM (inactive). Further, the GI50 with SW-620, with SF-268, in the assay on UACC-62 and in the assay with COLO 205 was > 100 µM (inactive) throughout.
Regarding `CN(C)CCCNc1cnc2cc3ccccc3cc2n1`, the GI50 with NCI-H226 is 16.8 µM (inactive); with RPMI-8226 it was 33.3 µM (inactive); with SK-MEL-28, 22.6 µM (inactive); with NCI-H522 it was 19.8 µM (inactive); in the assay with SNB-75 it was 23.7 µM (inactive); with MOLT-4, 28.4 µM (inactive). Further, the GI50 in the assay on HCT-116 is 32.8 µM (inactive); in the assay with SNB-19, 36.1 µM (inactive); in the assay on HCC 2998 it was 17.2 µM (inactive); with SF-295, 20.7 µM (inactive); in the assay on SR, 61.1 µM (inactive); with SW-620 it was 37.4 µM (inactive). Besides, the GI50 in the assay with DU-145 is 41 µM (inactive); in the assay on SF-268, 23.8 µM (inactive); with UACC-62 it was 15.6 µM (inactive); in the assay with MDA-N, 32.8 µM (inactive); with COLO 205, 18.3 µM (inactive).
On to `Cc1cc(=O)nc(S(=O)(=O)NC(=S)Nc2ccc(Br)cc2)[nH]1`, for which the GI50 in the assay with NCI-H226 was > 100 µM (inactive); in the assay with RPMI-8226, 33.4 µM (inactive); with NCI/ADR-RES it was > 100 µM (inactive); in the assay on SK-MEL-28, > 100 µM (inactive); in the assay on NCI-H522, 18.6 µM (inactive); in the assay with SNB-75 it was > 100 µM (inactive). For the same molecule, the GI50 is 36 µM (inactive) in the assay on MOLT-4; > 100 µM (inactive) in the assay with UO-31; > 100 µM (inactive) with T47D; > 100 µM (inactive) with SNB-19; > 100 µM (inactive) in the assay on HCC 2998; > 100 µM (inactive) with SF-295. Besides, the GI50 with SW-620, in the assay on DU-145, in the assay with SF-268, with UACC-62 and in the assay with COLO 205 was > 100 µM (inactive) each time.
For `O=[N+]([O-])c1cc(Cl)ccc1S(=O)(=O)c1ccccc1`, the GI50 with NCI-H226 is 67.6 µM (inactive); in the assay on RPMI-8226, > 100 µM (inactive); with NCI/ADR-RES it was > 100 µM (inactive); with SK-MEL-28, > 100 µM (inactive); in the assay on NCI-H522 it was 57.4 µM (inactive); with SNB-75, 30.8 µM (inactive). The GI50 with MOLT-4 was > 100 µM (inactive); with UO-31 it was > 100 µM (inactive); in the assay with T47D, 66.7 µM (inactive); with HCT-116, 35.5 µM (inactive); with SNB-19 it was > 100 µM (inactive); in the assay on HCC 2998, > 100 µM (inactive). Further, the GI50 in the assay on SF-295 is > 100 µM (inactive); in the assay on SW-620 it was > 100 µM (inactive); in the assay with DU-145, > 100 µM (inactive); in the assay on SF-268 it was 83.6 µM (inactive); with UACC-62 it was 53 µM (inactive); with COLO 205, 70 µM (inactive).
